This is an account of results in PubChem BioAssay AID1033 (Sanford-Burnham Center for Chemical Genomics, 2008).

The target in this test is Chaperone protein DnaK (Escherichia coli (strain K12)) (UniProt P0A6Y8). In words: E. coli DnaK SBD ligand binding – biophysical, NMR, chaperone (AID 1033). To be noted: Purified DnaK SBD.

Broadly, the Kd is the equilibrium constant for the complex coming apart.

The structures appear in SMILES notation. Active and inactive are the calls of the source. No rule for the calls is given here.

Chain of Chaperone protein DnaK (Escherichia coli (strain K12)) (P0A6Y8 whole entry, looked up): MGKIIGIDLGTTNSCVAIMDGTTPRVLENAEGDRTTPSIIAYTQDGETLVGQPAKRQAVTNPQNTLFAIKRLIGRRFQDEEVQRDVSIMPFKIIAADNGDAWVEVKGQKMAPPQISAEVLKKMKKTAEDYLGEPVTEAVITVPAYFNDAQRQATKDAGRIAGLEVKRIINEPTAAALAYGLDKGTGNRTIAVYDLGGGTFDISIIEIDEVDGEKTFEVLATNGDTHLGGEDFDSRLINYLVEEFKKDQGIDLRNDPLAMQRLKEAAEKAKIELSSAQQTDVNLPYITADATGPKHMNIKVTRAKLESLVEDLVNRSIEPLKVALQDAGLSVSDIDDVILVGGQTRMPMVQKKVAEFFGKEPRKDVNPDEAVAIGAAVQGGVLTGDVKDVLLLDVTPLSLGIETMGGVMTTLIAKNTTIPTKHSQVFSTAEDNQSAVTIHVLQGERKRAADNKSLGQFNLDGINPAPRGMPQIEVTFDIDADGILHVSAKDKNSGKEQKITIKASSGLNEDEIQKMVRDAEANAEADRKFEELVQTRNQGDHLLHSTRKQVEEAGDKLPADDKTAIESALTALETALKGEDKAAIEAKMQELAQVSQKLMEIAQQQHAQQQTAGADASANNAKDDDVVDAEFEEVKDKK

For the molecule `COC(=O)Nc1nnc(-c2ccncc2)s1`, the Kd is > 4 mM (inactive).

Turning to `O=S1(=O)CCC(Nc2ccccc2)C1` (stereo unspecified), the Kd was > 4 mM (inactive). To `CC1(C)C2C[C@@H](O)[C@]3(C)C(CC[C@@]4(C)[C@H](c5ccoc5)OC(=O)[C@H]5O[C@]543)[C@@]2(C)[C@@H](O)C[C@H]1O` (stereo partly specified) belongs > 4 mM (inactive). Next, `O=S1(=O)CCC(NC(=S)Nc2ccccc2)C1` (stereo unspecified): > 4 mM (inactive); `O=c1[nH]cc(NCc2ccco2)c(=O)[nH]1`: > 4 mM (inactive).

Consider `NC(=O)C1CCN(c2ccc(Cl)nn2)CC1`, for which the Kd was > 4 mM (inactive).

`O=c1c(-c2ccco2)[n+]([O-])c2ccccc2n1O`: the Kd was > 4 mM (inactive).

Consider `CSc1n[nH]c(NCc2ccccc2)n1`, for which the Kd is > 4 mM (inactive). In the case of `O=C(Nc1ccccc1C(F)(F)F)N1CCCCCC1`, the Kd was > 4 mM (inactive). Regarding `COC(=O)c1[nH]c2ccccc2c1C(=O)OC`, the Kd is > 4 mM (inactive). On to `Cn1nnc2cc(CN)ccc21`, for which the Kd is > 4 mM (inactive). As for `CCOc1ccc(C(=O)c2ccncc2)cc1`, the Kd was > 4 mM (inactive). In the case of `Cc1occc1C(=O)NCc1ccccc1F`, the Kd is > 4 mM (inactive). Turning to `Cc1ccc(SCc2cc(=O)n3[nH]cnc3n2)cc1`, the Kd is > 4 mM (inactive). For the molecule `COc1ccc(-c2ccc(SCC(N)=O)nn2)cc1`, the Kd was > 4 mM (inactive). On to `O=S1(=O)C=CC(N2CCCCC2)C1` (stereo unspecified), for which the Kd was > 4 mM (inactive). Take `Nc1cc(=O)[nH]c(SCC(=O)NCc2ccccc2)n1`: the Kd was > 4 mM (inactive).

As to `NCCNC(=S)Nc1ccccc1`, the Kd is > 4 mM (inactive). Next, `COc1ccc(N2C(=O)CCC2=O)c(OC)c1`: > 4 mM (inactive). Consider `CC1(C)CC2C1CC[C@]1(C)CCC3C(C(=O)O)CC(=O)O[C@@]32C1` (stereo partly specified), for which the Kd is > 4 mM (inactive).

As to `N#Cc1c(N)c(C(=O)c2ccccc2)n2c1CCC2`, the Kd was > 4 mM (inactive).

In the case of `CN1C(=O)c2ccc(C(=O)NC3CCCCC3)cc2C1=O`, the Kd was > 4 mM (inactive). Regarding `Cc1ccccc1C(=O)Nc1cccc(N)c1`, the Kd was > 4 mM (inactive). Next, `C#CCCCCCCCCCCCc1ccco1`: > 4 mM (inactive); `CC(=O)Nc1cccc(NC(=O)c2ccco2)c1`: > 4 mM (inactive). Next, `CC(=O)c1c(C)n(O)c2ccc3nonc3c12`: > 4 mM (inactive); `c1cncc(Nc2nc(-c3ccncc3)cs2)c1`: > 4 mM (inactive).

In the case of `c1ccc2[nH]c(NCCN3CCOCC3)nc2c1`, the Kd was > 4 mM (inactive).

As to `O=C(O)c1ccc2c(c1)OCCO2`, the Kd is > 4 mM (inactive). With `Cn1nccc1N`, the Kd is > 4 mM (inactive). For the molecule `COc1ccc(C)cc1S(=O)(=O)N1CCCCC1`, the Kd is > 4 mM (inactive).

In the case of `O=C(CCc1ccc(O)cc1)c1c(O)cc(O)cc1O`, the Kd was > 4 mM (inactive). As to `COc1cc(O)c2c(c1)C(=O)c1cc(C)cc(O)c1C2=O`, the Kd is > 4 mM (inactive). Consider `O=C(O)CC1NCCNC1=O` (stereo unspecified), for which the Kd is > 4 mM (inactive). Next, `O=C1c2ccc(F)cc2C(=O)N1CO`: > 4 mM (inactive); `NC(=O)c1ccccc1N1CCCCC1`: > 4 mM (inactive). Next, `Cc1nc2ccc(NC(=O)N3CCSCC3)cc2s1`: > 4 mM (inactive). Regarding `CC1(C)C2CC[C@]3(C)C(C(=O)C=C4[C@@H]5C[C@@](C)(C(=O)O)CC[C@]5(C)CC[C@]43C)[C@@]2(C)CC[C@@H]1O` (stereo partly specified), the Kd is > 4 mM (inactive). To `COc1cc(C)c(Cl)cc1S(=O)(=O)N(C)C` belongs > 4 mM (inactive); to `OC1CCN(c2nccc(C(F)(F)F)n2)CC1`, > 4 mM (inactive).

Take `C[C@H]1C[C@@H](O)[C@]2(O)[C@@]13CC(=O)OC[C@@]2(C)[C@](C)(O)C(=O)C3`: the Kd was > 4 mM (inactive).
